Consider 24 compounds from PubChem BioAssay (NCI).

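Test compounds were applied to cells in 96-well plates for 48 hours at 5 doses. At the GI50, growth is halved. Definition used: TGI = concentration required for complete inhibition of growth.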

Holding throughout (assay): NCI tumour cell line growth inhibition, 48 h
Test [1] deals with CAKI-1 renal.
Test [2] has as its system SK-MEL-5 melanoma.
Test [3] deals with MALME-3M melanoma.
Test [4] deals with HCT-116 colon.
The test system of test [5] is OVCAR-4 ovarian.
Test [6] relates to UACC-62 melanoma.
The test system of test [7] is RPMI-8226 leukemia.
In test [8] the test system is A498 renal.

Regarding `COc1ccc(NC(=O)CC(=O)N/N=C/c2ccc(N(CCC#N)S(C)(=O)=O)cc2)cc1`, the TGI in test [1], in test [2], in test [3], in test [4], in test [5] and in test [6] was over 100 µM throughout. Besides, the TGI in test [7] and in test [8] was over 100 µM in each case.

For `CC1(C)OC2=C(CC1Br)C(=O)C(=O)c1ccccc12` (centres undefined), the GI50 in test [1] is 1.66 µM; in test [2] it was 1.53 µM; in test [3], 1.8 µM; in test [4], 1.7 µM; in test [5] it was 1.67 µM; in test [6], 2.08 µM. For the same compound, the GI50 in test [7] was 2.65 µM; in test [8], 1.43 µM. In addition, the TGI in test [1] stood at 3.15 µM; in test [2] it was 2.89 µM; in test [3] it was 3.52 µM; in test [4], 3.41 µM; in test [5] it was 3.03 µM; in test [6] it was 3.98 µM. The results for the TGI in test [7] and in test [8] were 6.82 µM and 3.07 µM, respectively.

As to `N#CC(C#N)=C1Nc2ccccc2S1`, the GI50 in test [1] is 24.5 µM; in test [2], 22.7 µM; in test [3] it was 7.62 µM; in test [4] it was 37.7 µM; in test [5], 87 µM; in test [6] it was 37.2 µM. The GI50 in test [7] was 33.6 µM; in test [8], 26.6 µM. For the same compound, the TGI is 70.9 µM in test [1]; 44.8 µM in test [2]; 34.5 µM in test [3]; over 100 µM in test [4]; over 100 µM in test [5]; over 100 µM in test [6]. Further, the TGI in test [7] was determined as 79.7 µM; in test [8], 55.5 µM.

In the case of `Cc1cc(Cl)cc2c1NC(=O)C2(O)CC(=O)c1ccco1` (centres undefined), the TGI in test [1] is over 100 µM; in test [2], 51.5 µM; in test [3] it was over 76.1 µM; in test [4], over 100 µM; in test [5] it was 23.9 µM; in test [6] it was 67.5 µM. Also, the TGI was over 83.7 µM in test [7] and over 100 µM in test [8].

Regarding `COc1ccc(-c2onc(N)c2-c2cc(OC)c3c(c2)OCO3)cc1`, the GI50 in test [1] is 3.58 µM; in test [2], 2.8 µM; in test [3] it was 6.1 µM; in test [4] it was 2.32 µM; in test [5] it was 13.6 µM; in test [6], 1.96 µM. In addition, the GI50 is 3.51 µM in test [7] and 1.5 µM in test [8]. Moreover, the TGI was over 100 µM in test [1]; over 25.6 µM in test [2]; over 100 µM in test [3]; 50 µM in test [4]; over 96 µM in test [5]; over 46.9 µM in test [6]. Further, the results for the TGI in test [7] and in test [8] were over 86 µM and 10.9 µM, respectively.

With `C/C(O)=C(\N=O)C(=O)Nc1ccc(Cl)cc1Cl`, the TGI in test [1], in test [2], in test [3], in test [4], in test [5] and in test [6] was over 100 µM throughout. Moreover, the TGI in test [7] and in test [8] was over 100 µM each time.

For `O=C(O)c1nn(-c2ccccc2-c2n[nH]c(=O)[nH]c2=O)c(=O)[nH]c1=O`, the TGI in test [1], in test [2], in test [3], in test [4], in test [5] and in test [6] was over 100 µM each time. For the same compound, the TGI in test [7] and in test [8] was over 100 µM in each case.

As for `O=C1c2cccc([N+](=O)[O-])c2C(=O)N1c1ncn[nH]1`, the TGI in test [1], in test [2], in test [3], in test [4], in test [5] and in test [6] was over 100 µM each time. The TGI in test [7] and in test [8] was over 100 µM throughout.

With `COc1ccc2c(c1)C(=O)Cc1ccccc1CC2`, the TGI in test [1], in test [2], in test [3], in test [4], in test [5] and in test [6] was over 100 µM in each case. Further, the TGI in test [7] and in test [8] was over 100 µM in each case.

In the case of `CCN(CC)C(c1ccc(N(C)C)cc1)C(c1ccc(N(C)C)cc1)N(CC)CC` (centres undefined), the TGI in test [1] was over 73 µM; in test [2] it was over 73 µM; in test [3], 50.3 µM; in test [4], over 73 µM; in test [5], over 73 µM; in test [6], over 73 µM. Further, the TGI in test [7] and in test [8] was over 73 µM in each case.

For the compound `O=C(O)CCNC1CCCCC1`, the GI50 in test [1], in test [2], in test [3], in test [4], in test [5] and in test [6] was over 100 µM throughout. For the same compound, the GI50 in test [7] and in test [8] was over 100 µM in each case. Besides, the TGI in test [1], in test [2], in test [3], in test [4], in test [5] and in test [6] was over 100 µM throughout. The TGI in test [7] and in test [8] was over 100 µM in each case.

As for `CC[C@@]1(c2ccccc2)C2=C(CC(C)(C)CC2=O)Nc2[nH]ncc21`, the GI50 in test [1] was 51.9 µM; in test [2], over 100 µM; in test [3] it was over 100 µM; in test [4], over 100 µM; in test [5], over 100 µM; in test [6], over 100 µM. The results for the GI50 in test [7] and in test [8] were over 100 µM and 16.7 µM, respectively. Besides, the TGI in test [1], in test [2], in test [3], in test [4], in test [5] and in test [6] was over 100 µM in each case. The figures for the TGI in test [7] and in test [8] were over 100 µM and 56.3 µM, respectively.

`CCOCC(=O)N[C@H]1CCc2cc(OC)c(OC)c(OC)c2-c2ccc(OC)c(=O)cc21`: the TGI in test [1] is 30.1 µM; in test [2], 0.36 µM; in test [3], over 100 µM; in test [4], 10.7 µM; in test [5] it was over 100 µM; in test [6], over 100 µM. Besides, the TGI in test [7] is over 100 µM; in test [8], 8.87 µM.

With `O=C(CCc1nnc2sc(-c3ccc(Cl)cc3Cl)nn12)c1nc2ccccc2[nH]1`, the GI50 is 2.22 µM in test [1]; 1.26 µM in test [2]; 0.821 µM in test [3]; 0.247 µM in test [4]; 0.639 µM in test [5]; 1.19 µM in test [6]. Moreover, the figures for the GI50 in test [7] and in test [8] were 0.422 µM and 0.845 µM, respectively. The TGI is 5.45 µM in test [1]; 2.51 µM in test [2]; 3.52 µM in test [3]; 0.692 µM in test [4]; 3.55 µM in test [5]; 2.62 µM in test [6]. Besides, the TGI is 2.63 µM in test [7] and 2.26 µM in test [8].

For the compound `COC1(C)CP(=O)(OC(C)C)CC(C)=C1Cl` (centres undefined), the TGI in test [1] is 36.8 µM; in test [2], 26.6 µM; in test [3], 40.8 µM; in test [4] it was 21 µM; in test [5], 28.6 µM; in test [6], 25.6 µM. The TGI in test [7] was determined as 24.4 µM; in test [8], 37.6 µM.

Turning to `CC(=O)OCC1OC(NC(=S)N/N=C2\CC(c3ccccc3)Oc3ccccc32)C(OC(C)=O)C(OC(C)=O)C1OC(C)=O` (centres undefined), the TGI in test [1], in test [2], in test [3], in test [4], in test [5] and in test [6] was over 100 µM each time. Also, the TGI in test [7] and in test [8] was over 100 µM each time.

For the compound `NC(=O)NS(=O)(=O)c1ccc(N2N=C(C(F)(F)F)CC2c2cc(C(F)(F)F)cc(C(F)(F)F)c2)cc1` (centres undefined), the GI50 in test [1] is 5 µM; in test [2] it was 3.07 µM; in test [3] it was 13.9 µM; in test [4], 3.07 µM; in test [5], 2.9 µM; in test [6], 10.4 µM. The GI50 is 1.38 µM in test [7] and 2.24 µM in test [8]. For the same compound, the TGI was 19.5 µM in test [1]; 12 µM in test [2]; 39.9 µM in test [3]; 14.7 µM in test [4]; 12.8 µM in test [5]; 22.7 µM in test [6]. In addition, the TGI in test [7] was 3.74 µM; in test [8], 8.15 µM.

Turning to `CNC(=O)C1CCc2nnc(-c3ccccc3)n21` (centres undefined), the TGI in test [1], in test [2], in test [3], in test [4], in test [5] and in test [6] was over 100 µM in each case. For the same compound, the TGI in test [7] and in test [8] was over 100 µM each time.

Consider `C[N+]1=C(/C=C/c2ccc(O)c3ncccc23)C(C)(C)c2ccccc21`, for which the GI50 in test [1] is 1.11 µM; in test [2] it was 2.26 µM; in test [3], 2.01 µM; in test [4], 2.86 µM; in test [5], 3.12 µM; in test [6], 2.47 µM. For the same compound, the results for the GI50 in test [7] and in test [8] were 2.48 µM and 1.97 µM, respectively. The TGI in test [1] was determined as 3.83 µM; in test [2], 5.71 µM; in test [3], 5.43 µM; in test [4], 10.5 µM; in test [5], 17.2 µM; in test [6] it was 8.54 µM. Further, the TGI in test [7] came to 10.3 µM; in test [8], 11 µM.

As for `Cc1c(C(=O)C/C(=N/NC(=O)C[N+](C)(C)C)C(=O)Nc2ccc(Cl)cc2)[n+](=O)c2ccccc2n1O`, the TGI in test [1], in test [2], in test [3], in test [4], in test [5] and in test [6] was over 100 µM each time. The TGI in test [7] and in test [8] was over 100 µM each time.

Consider `COc1cc[nH]c1/C=C1\C(=O)Nc2ccc(F)c(C#CC3(O)CCNCC3)c21`, for which the GI50 in test [1] is 0.0181 µM; in test [2], 0.24 µM; in test [3] it was 0.405 µM; in test [4], 0.0125 µM; in test [5] it was 0.346 µM; in test [6] it was 0.16 µM. For the same compound, the GI50 is 0.372 µM in test [7] and 0.108 µM in test [8]. Further, the TGI in test [1] turned out to be 0.472 µM; in test [2], 0.968 µM; in test [3] it was 1.11 µM; in test [4], 2.76 µM; in test [5], 1.62 µM; in test [6] it was 0.633 µM. For the same compound, the values for the TGI in test [7] and in test [8] were 1.23 µM and 0.568 µM, respectively.

Regarding `CCCC1N2CCCCC2[C@@H]2c3[nH]c4ccccc4c3CCN12` (some centres undefined), the TGI in test [1], in test [2], in test [3], in test [4], in test [5] and in test [6] was over 100 µM throughout. Besides, the TGI in test [7] and in test [8] was over 100 µM throughout.

For `CN(C)/N=C(/CC(O)(C(F)(F)F)C(F)(F)F)c1ccc([N+](=O)[O-])cc1`, the TGI in test [1], in test [2], in test [3], in test [4], in test [5] and in test [6] was over 100 µM throughout. Also, the TGI in test [7] and in test [8] was over 100 µM throughout.

For the compound `Cc1ccc(NC(=O)CC(=O)n2nc(C)c(N=Nc3ccccc3C(=O)O)c2C)cc1`, the TGI in test [1], in test [2], in test [3], in test [4], in test [5] and in test [6] was over 100 µM in each case. In addition, the TGI in test [7] and in test [8] was over 100 µM each time.
